# Laboratory results taken from US8912176B2 (Evotec AG, priority 2009, dated 2014).
# pIC50: −log10 of the molar value.
# Target: human H3 receptor (Homo sapiens, UniProt Q9Y5N1)
# Assay: cAMP quantification assay for human H3 receptor (DiscoveRx cAMP XS+)
# human H3 receptor, sequence (Q9Y5N1 whole entry): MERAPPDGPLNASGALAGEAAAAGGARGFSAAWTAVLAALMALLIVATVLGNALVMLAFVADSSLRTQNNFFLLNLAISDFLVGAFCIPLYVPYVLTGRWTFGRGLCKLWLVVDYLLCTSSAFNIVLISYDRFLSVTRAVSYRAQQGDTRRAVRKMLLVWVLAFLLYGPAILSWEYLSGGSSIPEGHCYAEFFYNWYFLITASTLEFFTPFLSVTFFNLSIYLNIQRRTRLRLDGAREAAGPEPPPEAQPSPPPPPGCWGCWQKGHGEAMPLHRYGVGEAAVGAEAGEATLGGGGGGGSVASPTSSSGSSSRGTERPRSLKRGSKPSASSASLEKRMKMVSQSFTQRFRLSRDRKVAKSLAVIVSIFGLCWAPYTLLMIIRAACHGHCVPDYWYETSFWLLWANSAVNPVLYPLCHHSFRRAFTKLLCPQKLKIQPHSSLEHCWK
row,Structure (SMILES),pIC50
1,"O=C(C1CN(C(=O)C2CCC(F)(F)CC2)C1)N1CCCN(C2CCC2)CC1 [Example 29, 1-cyclobutyl-4-({1-[(4,4-difluorocyclohexyl)carbonyl]azetidin-3-yl}carbonyl)-1,4-diazepane]",> 7.30
2,"Cc1ccc(OCC(=O)N2CC(C(=O)N3CCCN(C4CCC4)CC3)C2)cn1 [Example 21, 1-cyclobutyl-4-[(1-{[(6-methylpyridin-3-yl)oxy]acetyl}azetidin-3-yl)carbonyl]-1,4-diazepane]",> 7.30
3,"O=C(Oc1ccc(Cl)cc1)N1CC(C(=O)N2CCCN(C3CCC3)CC2)C1 [Example 67, 4-chlorophenyl 3-[(4-cyclobutyl-1,4-diazepan-1-yl)carbonyl]azetidine-1-carboxylate]",> 7.30
4,"O=C(CC1CCCCC1)N1CC(C(=O)N2CCCN(C3CCC3)CC2)C1 [Example 33, 1-cyclobutyl-4-{[1-(cyclohexylacetyl)azetidin-3-yl]carbonyl}-1,4-diazepane]",> 7.30
5,"Cc1nc(-c2ccc(C(=O)N3CC(C(=O)N4CCCN(C5CCC5)CC4)C3)cc2)cs1 [Example 36, 1-cyclobutyl-4-[(1-{[4-(2-methyl-1,3-thiazol-4-yl)phenyl]carbonyl}azetidin-3-yl)carbonyl]-1,4-diazepane]",> 7.30
6,"O=C(CN1CCCCC1)N1CC(C(=O)N2CCCN(C3CCC3)CC2)C1 [Example 16, 1-cyclobutyl-4-{[1-(piperidin-1-ylacetyl)azetidin-3-yl]carbonyl}-1,4-diazepane]",> 7.30
7,"O=C(CN1CCC(F)(F)CC1)N1CC(C(=O)N2CCCN(C3CCC3)CC2)C1 [Example 20, 1-cyclobutyl-4-({1-[(4,4-difluoropiperidin-1-yl)acetyl]azetidin-3-yl}carbonyl)-1,4-diazepane]",> 7.30
8,"O=C(c1ccc(-n2ccnc2)nc1)N1CC(C(=O)N2CCCN(C3CCC3)CC2)C1 [Example 12, 1-cyclobutyl-4-[(1-{[6-(1H-imidazol-1-yl)pyridin-3-yl]carbonyl}azetidin-3-yl)carbonyl]-1,4-diazepane]",> 7.30
9,"O=C(C1CN(S(=O)(=O)c2ccccc2)C1)N1CCCN(C2CCC2)CC1 [Example 26, 1-cyclobutyl-4-{[1-(phenylsulfonyl)azetidin-3-yl]carbonyl}-1,4-diazepane]",> 7.30
10,"O=C(C1CN(C(=O)C2CCOCC2)C1)N1CCCN(C2CCC2)CC1 [Example 5, 1-cyclobutyl-4-{[1-(tetrahydro-2H-pyran-4-ylcarbonyl)azetidin-3-yl]carbonyl}-1,4-diazepane]",> 7.30
11,"O=C(Cn1cccn1)N1CC(C(=O)N2CCCN(C3CCC3)CC2)C1 [Example 15, 1-cyclobutyl-4-{[1-(1H-pyrazol-1-ylacetyl)azetidin-3-yl]carbonyl}-1,4-diazepane]",> 7.30
12,"O=C(C1CN(C(=O)N2CCOCC2)C1)N1CCCN(C2CCC2)CC1 [Example 3, 1-cyclobutyl-4-{[1-(morpholin-4-ylcarbonyl)azetidin-3-yl]carbonyl}-1,4-diazepane]",> 7.30
13,"Cc1ccc(C(=O)N2CC(C(=O)N3CCCN(C4CCC4)CC3)C2)cn1 [Example 10, 1-cyclobutyl-4-({1-[(6-methylpyridin-3-yl)carbonyl]azetidin-3-yl}carbonyl)-1,4-diazepane]",> 7.30
14,"Cc1nnc(-c2ccc(C(=O)N3CC(C(=O)N4CCCN(C5CCC5)CC4)C3)cc2)o1 [Example 31, 1-cyclobutyl-4-[(1-{[4-(5-methyl-1,3,4-oxadiazol-2-yl)phenyl]carbonyl}azetidin-3-yl)carbonyl]-1,4-diazepane]",> 7.30
15,"Cc1cc(C)n(-c2ccc(C(=O)N3CC(C(=O)N4CCCN(C5CCC5)CC4)C3)cc2)n1 [Example 30, 1-cyclobutyl-4-[(1-{[4-(3,5-dimethyl-1H-pyrazol-1-yl)phenyl]carbonyl}azetidin-3-yl)carbonyl]-1,4-diazepane]",> 7.30
16,"O=C(C1CN(C(=O)C2CCCCC2)C1)N1CCCN(C2CCC2)CC1 [Example 4, 1-cyclobutyl-4-{[1-(cyclohexylcarbonyl)azetidin-3-yl]carbonyl}-1,4-diazepane]",> 7.30
17,"N#Cc1ccc(OC(=O)N2CC(C(=O)N3CCCN(C4CCC4)CC3)C2)cc1 [Example 69, 4-cyanophenyl 3-[(4-cyclobutyl-1,4-diazepan-1-yl)carbonyl]azetidine-1-carboxylate]",> 7.30
18,"Cc1nc(-c2ccc(C(=O)N3CC(C(=O)N4CCCN(C5CCC5)CC4)C3)cc2)no1 [Example 37, 1-cyclobutyl-4-[(1-{[4-(5-methyl-1,2,4-oxadiazol-3-yl)phenyl]carbonyl}azetidin-3-yl)carbonyl]-1,4-diazepane]",> 7.30
19,"COc1ccc(S(=O)(=O)N2CC(C(=O)N3CCCN(C4CCC4)CC3)C2)cc1 [Example 23, 1-cyclobutyl-4-({1-[(4-methoxyphenyl)sulfonyl]azetidin-3-yl}carbonyl)-1,4-diazepane]",7.00 to 7.30
20,"COC1CCC(C(=O)N2CC(C(=O)N3CCCN(C4CCC4)CC3)C2)CC1 (mixture of isomers) [Example 28, 1-cyclobutyl-4-({1-[(4-methoxycyclohexyl)carbonyl]azetidin-3-yl}carbonyl)-1,4-diazepane]",> 7.30

# Next, values leading:
row,pIC50,Structure (SMILES)
1,> 7.30,"Cc1ccc(C(=O)N2CC(C(=O)N3CCCN(C4CCCCC4)CC3)C2)cn1 [Example 82, 1-cyclohexyl-4-({1-[(6-methylpyridin-3-yl)carbonyl]azetidin-3-yl}carbonyl)-1,4-diazepane]"
2,> 7.30,"Cc1cc(C(=O)N2CC(C(=O)N3CCCN(C4CCC4)CC3)C2)ccn1 [Example 75, 1-cyclobutyl-4-({1-[(2-methylpyridin-4-yl)carbonyl]azetidin-3-yl}carbonyl)-1,4-diazepane]"
3,> 7.30,"Cc1ccc(CC(=O)N2CC(C(=O)N3CCCN(C4CCC4)CC3)C2)cn1 [Example 43, 1-cyclobutyl-4-({1-[(6-methylpyridin-3-yl)acetyl]azetidin-3-yl}carbonyl)-1,4-diazepane]"
4,> 7.30,"O=C(NCC1CCCCC1)N1CC(C(=O)N2CCCN(C3CCC3)CC2)C1 [Example 56, 3-[(4-cyclobutyl-1,4-diazepan-1-yl)carbonyl]-N-(cyclohexylmethyl)azetidine-1-carboxamide]"
5,> 7.30,"O=C(c1ccc(Oc2ccccc2)cc1)N1CC(C(=O)N2CCCN(C3CCC3)CC2)C1 [Example 39, 1-cyclobutyl-4-({1-[(4-phenoxyphenyl)carbonyl]azetidin-3-yl}carbonyl)-1,4-diazepane]"
6,> 7.30,"CNC(=O)c1ccc(C(=O)N2CC(C(=O)N3CCCN(C4CCC4)CC3)C2)cn1 [Example 77, 5-({3-[(4-cyclobutyl-1,4-diazepan-1-yl)carbonyl]azetidin-1-yl}carbonyl)-N-methylpyridine-2-carboxamide]"
7,5.30 to 7.00,"O=C(CC1CCOCC1)N1CC(C(=O)N2CCCN(C3CCC3)CC2)C1 [Example 53, 1-cyclobutyl-4-{[1-(tetrahydro-2H-pyran-4-ylacetyl)azetidin-3-yl]carbonyl}-1,4-diazepane]"
8,> 7.30,"CC(C)(O)c1ccc(C(=O)N2CC(C(=O)N3CCCN(C4CCC4)CC3)C2)cn1 [Example 76, 2-[5-({3-[(4-cyclobutyl-1,4-diazepan-1-yl)carbonyl]azetidin-1-yl}carbonyl)pyridin-2-yl]propan-2-ol]"
9,> 7.30,"O=C(C1CN(C(=O)N2CCc3ccccc3C2)C1)N1CCCN(C2CCC2)CC1 [Example 65, 2-({3-[(4-cyclobutyl-1,4-diazepan-1-yl)carbonyl]azetidin-1-yl}carbonyl)-1,2,3,4-tetrahydroisoquinoline]"
10,> 7.30,"CN(Cc1ccc(C#N)cc1)C(=O)N1CC(C(=O)N2CCCN(C3CCC3)CC2)C1 [Example 64, N-(4-cyanobenzyl)-3-[(4-cyclobutyl-1,4-diazepan-1-yl)carbonyl]-N-methylazetidine-1-carboxamide]"
11,> 7.30,"O=C(c1ccc(-n2cncn2)c(F)c1)N1CC(C(=O)N2CCCN(C3CCC3)CC2)C1 [Example 78, 1-cyclobutyl-4-[(1-{[3-fluoro-4-(1H-1,2,4-triazol-1-yl)phenyl]carbonyl}azetidin-3-yl)carbonyl]-1,4-diazepane]"
12,> 7.30,"CC(=O)N1CC(C(=O)N2CCCN(C3CCC3)CC2)C1 [Example 70, 1-[(1-acetylazetidin-3-yl)carbonyl]-4-cyclobutyl-1,4-diazepane]"
13,> 7.30,"Cc1nc(-c2cccc(C(=O)N3CC(C(=O)N4CCCN(C5CCC5)CC4)C3)c2)cs1 [Example 46, 1-cyclobutyl-4-[(1-{[3-(2-methyl-1,3-thiazol-4-yl)phenyl]carbonyl}azetidin-3-yl)carbonyl]-1,4-diazepane]"
14,5.30 to 7.00,"Cc1ccc(C(=O)N2CC(C(=O)N3CCN(C4CCC4)CC3)C2)cn1 [Example 87, 1-cyclobutyl-4-({1-[(6-methylpyridin-3-yl)carbonyl]azetidin-3-yl}carbonyl)piperazine]"
15,> 7.30,"O=C(c1ccc(-n2cncn2)cc1)N1CC(C(=O)N2CCCN(C3CCC3)CC2)C1 [Example 73, 1-cyclobutyl-4-[(1-{[4-(1H-1,2,4-triazol-1-yl)phenyl]carbonyl}azetidin-3-yl)carbonyl]-1,4-diazepane]"
16,5.30 to 7.00,"Cc1ccc(C(=O)N2CC(C(=O)N3CCCN(CC4CC4)CC3)C2)cn1 [Example 83, 1-(cyclopropylmethyl)-4-({1-[(6-methylpyridin-3-yl)carbonyl]azetidin-3-yl}carbonyl)-1,4-diazepane]"
17,> 7.30,"O=C(NCc1ccc(F)cc1)N1CC(C(=O)N2CCCN(C3CCC3)CC2)C1 [Example 58, 3-[(4-cyclobutyl-1,4-diazepan-1-yl)carbonyl]-N-(4-fluorobenzyl)azetidine-1-carboxamide]"
18,> 7.30,"Cc1noc(-c2ccc(C(=O)N3CC(C(=O)N4CCCN(C5CCC5)CC4)C3)cc2)n1 [Example 41, 1-cyclobutyl-4-[(1-{[4-(3-methyl-1,2,4-oxadiazol-5-yl)phenyl]carbonyl}azetidin-3-yl)carbonyl]-1,4-diazepane]"
19,> 7.30,"O=C(c1ccc(-n2cccn2)cc1)N1CC(C(=O)N2CCCN(C3CCC3)CC2)C1 [Example 40, 1-cyclobutyl-4-[(1-{[4-(1H-pyrazol-1-yl)phenyl]carbonyl}azetidin-3-yl)carbonyl]-1,4-diazepane]"
